Results: US6362369B1, “Phthalic acid diamide derivatives fluorine-containing aniline compounds as starting material, agricultural and horticultural insecticides, and a method for application of the insecticides” (Nihon Nohyaku Co., Ltd., priority 1997, dated 2002)

Experiments:
Type in all cases: in vivo
[1] = tested on: diamondback moth (Plutella xylostella); test: Insecticidal effect on diamondback moth (Test Example 1); conditions: mortality judged according to the criterion shown in Test Example 1
Procedure, shortened: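 Read-out was mortality from hatched-insect counts taken 6 days after the egg-bearing cabbage seedling was immersed, graded by set criteria. Seedlings were air-dried and kept at 25° C after treatment. Groups of 10 insects, in triplicate.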

[2] = tested on: common cutworm (Spodoptera Litura); test: Insecticidal effect on common cutworm (Test Example 2); conditions: 500 ppm, cabbage leaf dip, second-instar larvae, eight days after inoculation, 25° C.
Procedure, shortened: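 Mortality is the read-out: larvae are counted as dead or alive on day 8 and the percentage is graded by an effect criterion. Second-instar larvae are kept with the air-dried treated material in a sealed dish at 25° C, in triplicate groups of ten.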

[3] = tested on: rice leafroller (Cnaphalocrocis medinalis); test: Insecticidal effect on rice leafroller (Test Example 3); conditions: 500 ppm, rice lamina dip, third-instar larvae, four days after inoculation, 25° C., humidity 70%
Procedure, shortened: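 Groups of 10 third-instar larvae, in triplicate, are placed on air-dried lamina resting on wet filter paper. Incubation runs four days at 25° C with 70% humidity before survivors and dead are tallied.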

SMILES	Insecticidal effect on diamondback moth (Test Example 1), judged grade [1]	Insecticidal effect on common cutworm (Test Example 2), judged grade [2]	Insecticidal effect on rice leafroller (Test Example 3), judged grade [3]
Cc1ccc(F)cc1NC(=O)c1c(F)cccc1C(=O)NC(C)C [compound 549]	A (100)	A (100)	D (79-50)
CC(C)NC(=O)c1cccc(F)c1C(=O)Nc1ccc(C(F)(F)F)cc1Cl [compound 550]	A (100)	C (89-80)	A (100)
Cc1cc(OC(F)(F)C(F)(Cl)Cl)ccc1NC(=O)c1c(F)cccc1C(=O)NC(C)C [compound 553]	A (100)	C (89-80)	A (100)
Cc1cc(C(F)(F)C(F)(F)C(F)(F)C(F)(F)F)ccc1NC(=O)c1c(F)cccc1C(=O)NC(C)C [compound 557]	A (100)	C (89-80)	B (99-90)
Cc1c(NC(=O)c2c(F)cccc2C(=O)NC(C)C)cccc1OC(F)F [compound 558]	A (100)	A (100)	A (100)
CC(C)NC(=O)c1cccc(F)c1C(=O)Nc1ccc(C(F)(C(F)(F)F)C(F)(F)F)cc1Cl [compound 561]	A (100)	C (89-80)	A (100)
Cc1cc(OC(F)(F)C(F)Cl)ccc1NC(=O)c1c(F)cccc1C(=O)NC(C)C (stereo not drawn) [compound 567]	A (100)	D (79-50)	D (79-50)
Cc1cc(OC(F)(F)C(F)C(F)(F)F)ccc1NC(=O)c1c(F)cccc1C(=O)NC(C)C (stereo not drawn) [compound 568]	A (100)	C (89-80)	A (100)
Cc1cc(OC(F)(F)C(F)(Br)C(F)(F)F)ccc1NC(=O)c1c(F)cccc1C(=O)NC(C)C (stereo not drawn) [compound 569]	A (100)	A (100)	A (100)
CC(C)NC(=O)c1cccc(F)c1C(=O)Nc1ccc(OC(F)F)cc1C(F)(F)F [compound 579]	A (100)	A (100)	A (100)
Cc1cc(OC(F)F)ccc1NC(=O)c1c(F)ccc(F)c1C(=O)NC(C)C [compound 581]	A (100)	B (99-90)	A (100)
CC(C)NC(=O)c1c(C(=O)Nc2ccc(I)cc2)cccc1[N+](=O)[O-] [compound 595]	A (100)	A (100)	A (100)
Cc1ccccc1NC(=O)c1cccc([N+](=O)[O-])c1C(=O)NC(C)C [compound 599]	A (100)	D (79-50)	A (100)
CC(C)NC(=O)c1c(C(=O)Nc2ccc(C(F)(F)F)cc2)cccc1[N+](=O)[O-] [compound 606]	A (100)	D (79-50)	A (100)
CC(C)NC(=O)c1c(C(=O)Nc2cccc(C(F)(F)F)c2)cccc1[N+](=O)[O-] [compound 607]	A (100)	A (100)	A (100)
CC(C)NC(=O)c1c(C(=O)Nc2ccc(C(F)(F)C(F)(F)C(F)(F)F)cc2)cccc1[N+](=O)[O-] [compound 609]	A (100)	B (99-90)	A (100)
CC(C)NC(=O)c1c(C(=O)Nc2ccc(C(F)(C(F)(F)F)C(F)(F)F)cc2)cccc1[N+](=O)[O-] [compound 610]	A (100)	A (100)	C (89-80)
CC(C)NC(=O)c1c(C(=O)Nc2ccc(OC(F)F)cc2)cccc1[N+](=O)[O-] [compound 617]	A (100)	A (100)	A (100)
CC(C)NC(=O)c1c(C(=O)Nc2ccc(OC(F)(F)F)cc2)cccc1[N+](=O)[O-] [compound 618]	A (100)	A (100)	A (100)
CC(C)NC(=O)c1c(C(=O)Nc2ccc(OC(F)(F)C(F)OC(F)(F)C(F)(F)C(F)(F)F)cc2)cccc1[N+](=O)[O-] (stereo not drawn) [compound 619]	A (100)	A (100)	A (100)
CC(C)NC(=O)c1c(C(=O)Nc2ccc(SC(F)F)cc2)cccc1[N+](=O)[O-] [compound 625]	A (100)	D (79-50)	D (79-50)
CC(C)NC(=O)c1c(C(=O)Nc2ccc(SC(F)(F)C(F)(F)Br)cc2)cccc1[N+](=O)[O-] [compound 628]	A (100)	B (99-90)	A (100)
CC(C)NC(=O)c1c(C(=O)Nc2ccc(Cl)c(Cl)c2)cccc1[N+](=O)[O-] [compound 636]	A (100)	D (79-50)	A (100)
